Here are results for 24 compounds from patent US10538516B2, “Oxadiazole derivative and pharmaceutical containing same” (National Center for Geriatrics and Gerontology, priority 2015, dated 2020).

Where a name gives a salt, the structure may show the parent alone. Read-outs that look alike come from different tables or passages of the source. Some results are limits rather than exact numbers.

The target in the test is T1, GAβ-dependent amyloid fibril formation (Human Aβ1-40 + GM1-containing liposome) (Homo sapiens, UniProt P05067).
T1 construct: Human Aβ1-40 (cat. #4307-v, prepared by Peptide Institute); purchased Peptide Institute 4307-v
Description: Thioflavin T (ThT) assay of GAβ-dependent amyloid fibril formation (Aβ1-40 with GM1-containing liposome). Format: biochemical. As for the experimental part:
<3. Evaluation of the Compounds Based on the Inhibitory Activity Against Amyloid Fibril Formation in Thioflabin T (ThT) Assay>
Inhibitory activity against GAβ-dependent amyloid fibril formation of the above compounds 1 to 133 and 142 to 267 were evaluated in ThT assay.
(1) Preparation of Aβ Solution
Human Aβ1-40 (cat. #4307-v, prepared by Peptide Institute) was dissolved in a 0.02% ammonia solution (400 μM), and the mixture was treated in an ultracentrifuge (S110AT rotor, Hitachi) at 100,000 rpm for 3 hours. Approximately two-thirds of the upper layer of the supernatant was recovered and protein concentration was measured. The Aβ solution was aliquoted and stored at −80° C. until use, was melted immediately before use, and was diluted to 75 μM using phosphate buffer (PBS: cat. #10010, manufactured by Life Technologies).
(2) Preparation of GM1-Containing Liposome
Using a mixed solution of chloroform/methanol (1:1) as a solvent, a mixed solution of 100 mM each of cholesterol and sphingomyelin (both manufactured by Sigma-Aldrich) was prepared. To this mixed solution, GM 1 (cat. #1061, manufactured by Matreya Co.) was dissolved to make a solution of 50 mM concentration. This lipid mixed solution was aliquoted into glass test tubes and stored at −20° C. until use, was melted before use, was mixed with chloroform/methanol mixture (1:1) and mixed, and then the solvent was removed by applying nitrogen gas to the suspension. The dried lipid mixture was resuspended in PBS to be a GM1 concentration of 2.5 mM, and frozen and thawed 5 times with liquid nitrogen. The lipid suspension was centrifuged at 15,000 rpm for 10 minutes and the precipitate was resuspended in PBS to be a GM1 concentration of 2.5 mM. Using an ultrasonic crusher (XL-2000, MISONIX Co., Ltd.) equipped with a microchip, ultrasonic treatment was repeated on ice for 10 seconds until the suspension became transparent, and GM1-containing liposome was prepared. Immediately prior to use, PBS was added and diluted to a GM 1 concentration of 75 μM.
(3) Preparation of Compound Solution
Compounds 1 to 133 and 142 to 267 were prepared as 10 mM and 2 mM solution in DMSO, respectively. And each solution was diluted to 75 μM or 15 μM with PBS immediately prior to use.
(4) GAβ-Dependent Amyloid Fibril Formation
To a 96-well microplate, 5 μl each of the 75 μM Aβ solution prepared above (1), the compound solution prepared in (3) or 0.75% DMSO was mixed and incubated at room temperature for 10 minutes. Then, 5 μl each of 750 μM GM1-containing liposome prepared in (2) was added to each well and incubated at 37° C. for 18 hours.
ThT (manufactured by Sigma-Aldrich) was adjusted to 5 μM using 50 mM glycine-NaOH buffer (pH 8.5). Immediately before measurement, 10 μl from each well of (4) was transferred to a 96-well black plate. 50 μl of 5 μM ThT solution was added from each injector to each well using a multi-plate reader (ARVO-HTS, manufactured by Perkin Elmer), and then the optimal fluorescence of ThT bound to amyloid fiber (excitation wavelength 430 nm, fluorescence wavelength 490 nm) was measured.
The fluorescence intensity of ThT indicates the degree of amyloid fibrils formation. By calculating the ratio of the ThT fluorescence intensity between addition of the compound and without addition of the compound, the inhibition rate against amyloid fibril formation by the compound was calculated.

The mark [1] stands for this setting: inhibition rate against amyloid fibril formation, final concentration of the compound 25 μM, read-out: Inhibitory activity ABC evaluation.
[2] abbreviates: @25 μM, read-out: ThT Inhibitory activity (% inhibition).
The mark [3] stands for this setting: read-out: ThT Inhibitory activity (% inhibition).

T1 sequence (P05067 672-711 limits assumed): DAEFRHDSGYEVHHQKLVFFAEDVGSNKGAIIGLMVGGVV

Take `O=C(NC1(c2nc(-c3ccc(OC(F)(F)F)cc3)no2)CCCC1)c1ccc(Cl)cc1` [Compound 29, 4-chloro-N-(1-[3-{4-(trifluoromethoxy)phenyl}-1,2,4-oxadiazol-5-yl]cyclopentyl) benzamide]: the inhibition at 25 µM under setting [1] is below 40%.

`O=C(N[C@@H](CO)c1nc(-c2ccc(Cl)o2)no1)c1ccc(F)cc1` [Compound 228, N-[(1S)-1-[3-(5-chlorofuran-2-yl)-1,2,4-oxadiazol-5-yl]-2-hydroxyethyl]-4-fluorobenzamide]: the inhibition at 25 µM under setting [1] was below 40%. Same read-out and setting: the same measure for `O=C(N[C@@H](CO)c1nc(-c2ccc(OC(F)(F)F)cc2)no1)c1c[nH]c2cc(Cl)ccc12` [Compound 76, (S)-6-chloro-N-(2-hydroxy-1-[3-{4-(trifluoro-methoxy)phenyl}-1,2,4-oxadiazol-5-yl}ethyl)-1H-indole-3-carboxamide]: 40 to 80%; for `O=C(N[C@@H](CO)c1nc(-c2cc(Cl)sc2Cl)no1)c1ccc(F)cc1` [Compound 231, N-[(1S)-1-[3-(2,5-dichlorothiophen-3-yl)-1,2,4-oxadiazol-5-yl]-2-hydroxyethyl]-4-fluorobenzamide]: 40 to 80%. `Cl.O=C(N[C@@H](CO)c1nc(-c2ccc(C(F)(F)F)cn2)no1)c1ccc(F)cc1` [Compound 206, 4-fluoro-N-[(1S)-2-hydroxy-1-{3-[5-(trifluoromethyl)pyridin-2-yl]-1,2,4-oxadiazol-5-yl}ethyl]benzamide hydrochloride]: the inhibition at 25 µM under setting [2] is 55%. Besides, where the note is “inhibition rate against amyloid fibril formation, final concentration of the compound 25 μM”, the “Inhibitory activity ABC evaluation” value is “B (40% or more and less than 80% were evaluated as B)”. With `O=C(N[C@@H](CO)c1nc(-c2cccc(C(F)(F)F)c2)no1)c1cn2ccccc2n1` [Compound 244, N-[(1S)-2-hydroxy-1-{3-[3-(trifluoromethyl)phenyl]-1,2,4-oxadiazol-5-yl}ethyl]imidazo[1,2-a]pyridine-2-carboxamide], under setting [1], the inhibition at 25 µM was below 40%. For the compound `C[C@@H](O)[C@H](NC(=O)c1ccc(Cl)cc1)c1nc(-c2ccc(OC(F)(F)F)cc2)no1` [Compound 80, 4-chloro-N-((1S,2R)-2-hydroxy-1-[3-{4-(trifluoro-methoxy)phenyl}-1,2,4-oxadiazol-5-yl]propyl) benzamide], the inhibition at 25 µM is, setting by setting: under setting [2], 80%; under setting [1], above 80%.

Regarding `CS(=O)(=O)Nc1ccc(-c2nnc([C@@H](N)Cc3c[nH]c4ccccc34)o2)cc1` [Compound 111, (S)-N-(4-(5-(1-amino-2-(1H-indol-3-yl)ethyl)-1,3,4-oxadiazol-2-yl)phenyl) methane-sulfonamide hydrochloride], under setting [1], the inhibition at 25 µM was below 40%. With `O=C(N[C@@H](CO)c1nc(-c2ccc(C(F)(F)F)cc2)no1)c1ccc(Cl)cn1` [Compound 239, 5-chloro-N-[(1S)-2-hydroxy-1-{3-[4-(trifluoromethyl)phenyl]-1,2,4-oxadiazol-5-yl}ethyl]pyridine-2-carboxamide], the inhibition at 25 µM is 64% under setting [2] and 40 to 80% under setting [1]. In the case of `O=C(c1cccc(Cl)c1)N1C[C@H](O)C[C@H]1c1nc(-c2ccc(OC(F)(F)F)cc2)no1` [Compound 58, (3-chlorophenyl) ((2S,4R)-4-hydroxy-2-[3-{4-(trifluoro-methoxy)phenyl}-1,2,4-oxadiazol-5-yl]pyrrolidin-1-yl)methanone], the inhibition at 25 µM under setting [1] lay within 40 to 80%. Still for that read-out and setting: the same measure for `O=C1CC(c2ncc(-c3ccc(OC(F)(F)F)cc3)[nH]2)CN1c1ccc(Cl)cc1` (stereo not drawn) [Compound 124, 1-(4-chlorophenyl)-4-{5-[4-(trifluoromethoxy)phenyl]-1H-imidazol-2-yl}pyrrolidin-2-one]: below 40%; for `OC[C@H](NC(=S)Nc1ccc(Cl)cc1)c1nc(-c2ccc(OC(F)(F)F)cc2)no1` [Compound 97, (S)-1-(4-chloro-phenyl)-3-(2-hydroxy-1-[3-{4-(trifluoromethoxy)phenyl}-1,2,4-oxadiazol-5-yl]ethyl)thiourea]: 40 to 80%. The same measure, in the same setting: the same measure for `O=C(NC(CO)c1nc(-c2ccc(C(F)(F)F)cc2)no1)c1ccc(C(F)(F)F)cc1` (stereo not drawn) [Compound 188, N-(2-hydroxy-1-{3-[4-(trifluoromethyl)phenyl]-1,2,4-oxadiazol-5-yl}ethyl)-4-(trifluoromethyl) benzamide]: above 80%. The same measure, in the same setting: then `O=C(N[C@@H](CO)c1nc(-c2nc3ccc(O)cc3s2)no1)c1ccc(F)cc1` [Compound 259, 4-fluoro-N-[(1S)-2-hydroxy-1-[3-(6-hydroxy-1,3-benzothiazol-2-yl)-1,2,4-oxadiazol-5-yl]ethyl] benzamide], with 40 to 80%. In the case of `COc1ccc(-c2noc([C@H](CO)NC(=O)c3ccc(Cl)cc3)n2)cc1` [Compound 125, (S)-4-chloro-N-(2-hydroxy-1-(3-(4-methoxyphenyl)-1,2,4-oxadiazol-5-yl)ethyl)benzamide], the inhibition at 5 µM under setting [3] came out at 59%. The inhibition at 25 µM by setting is: under setting [2], 88%; under setting [1], above 80%. Consider `COc1ccc(-c2noc(CCC(=O)Nc3cccc(Cl)c3)n2)cc1` [Compound 8, N-(3-chlorophenyl)-3-{3-(4-methoxyphenyl)-1,2,4-oxadiazol-5-yl}propanamide], for which the inhibition at 25 µM under setting [1] was below 40%. Still for that read-out and setting: then `O=C(N[C@@H](CO)c1nc(-c2ccc(C(F)(F)F)cc2)no1)c1cn2ccccc2n1` [Compound 240, N-[(1S)-2-hydroxy-1-{3-[4-(trifluoromethyl)phenyl]-1,2,4-oxadiazol-5-yl}ethyl]imidazo[1,2-a]pyridine-2-carboxamide], with below 40%; and `O=C(c1ccc(Cl)cc1)N1C[C@H](O)C[C@H]1c1nc(-c2ccc(OC(F)(F)F)cc2)no1` [Compound 34, (3R,5S)-1-(4-chlorobenzoyl)-5-{3-[4-(trifluoromethoxy)phenyl]-1,2,4-oxadiazol-5-yl}pyrrolidin-3-ol], with 40 to 80%. Turning to `NC(Cc1c[nH]c2ccccc12)c1nc(-c2ccc3c(c2)OC(F)(F)O3)no1` (stereo not drawn) [Compound 40, 1-{3-(2,2-difluorobenzo[d] [1,3]dioxol-5-yl)-1,2,4-oxadiazol-5-yl}-2-(1H-indol-3-yl)ethan-1-amine], the inhibition at 5 µM under setting [3] came to 38%. Also, the inhibition at 25 µM under setting [2] came to 80% and the inhibition at 25 µM under setting [1] was above 80%. Consider `O=C(/C=C/c1cc(Cl)cc(Cl)c1)NC(CO)c1nc(-c2ccc(C(F)(F)F)cc2)no1` (stereo not drawn) [Compound 191, (2E)-3-(3,5-dichlorophenyl)-N-(2-hydroxy-1-{3-[4-(trifluoromethyl)phenyl]-1,2,4-oxadiazol-5-yl}ethyl)prop-2-enamide], for which the inhibition at 25 µM by setting is: under setting [2], 73%; under setting [1], 40 to 80%. Take `O=C(Nc1nc(-c2ccc(C(F)(F)F)cc2)no1)c1ccccc1` [Compound 174, N-{3-[4-(trifluoromethyl)phenyl]-1,2,4-oxadiazol-5-yl} benzamide]: the inhibition at 25 µM under setting [1] is below 40%. As to `O=C(N[C@@H](CO)c1nc(-c2c[nH]c3ccccc23)no1)c1ccc(F)cc1` [Compound 211, 4-fluoro-N-[(1S)-2-hydroxy-1-[3-(1H-indol-3-yl)-1,2,4-oxadiazol-5-yl]ethyl]benzamide], the inhibition at 25 µM was 89% under setting [2] and above 80% under setting [1]. On to `CN(Cc1ccccc1)C(=O)CCc1nc(-c2ccc3c(c2)OCCO3)no1` [Compound 16, N-benzyl-3-{3-(2,3-dihydrobenzo[b][1,4]dioxin-6-yl)-1,2,4-oxadiazol-5-yl}-N-methylpropanamide], for which, under setting [1], the inhibition at 25 µM was below 40%. For the compound `O=C(N[C@@H](CO)c1nc(-c2cccc(C(F)(F)F)c2)no1)c1ccc(N2CCCC2)cc1` [Compound 221, N-[(1S)-2-hydroxy-1-{3-[3-(trifluoromethyl)phenyl]-1,2,4-oxadiazol-5-yl}ethyl]-4-(pyrrolidin-1-yl) benzamide], the inhibition at 25 µM under setting [1] is above 80%.
